# Test results: ChEMBL document CHEMBL4196057, “The chemical diversity and structure-based evolution of non-peptide CXCR4 antagonists with diverse therapeutic potential” (Eur J Med Chem, 2018)
# Assays:
# [1] = system: Human immunodeficiency virus 1; assay: Antiviral activity against HIV1 assessed as inhibition of virus induced cytopathic effect; assay type: functional, organism-based
# [2] = system: Human immunodeficiency virus 1; assay: Antiviral activity against HIV1 R5/X4 infected in human PBMC after 1 hr by ELISA; assay type: functional, organism-based; settings: Human immunodeficiency virus 1, R5/X4, PBMC
# [3] = system: Human immunodeficiency virus 1; assay: Antiviral activity against HIV1 R5 infected in human PBMC after 1 hr by ELISA; assay type: functional, organism-based; settings: Human immunodeficiency virus 1, R5, PBMC
# [4] = system: Human immunodeficiency virus 1; assay: Antiviral activity against HIV1 NL4-3 infected in human PBMC after 1 hr by ELISA; assay type: functional, organism-based; settings: Human immunodeficiency virus 1, NL4-3, PBMC
# [5] = system: Human immunodeficiency virus 1; assay: Antiviral activity against HIV1 3B infected in human PBMC after 1 hr by ELISA; assay type: functional, organism-based; settings: Human immunodeficiency virus 1, 3B
# [6] = system: Human immunodeficiency virus 1; assay: Antiviral activity against HIV1 3B infected in human MT4 cells assessed as inhibition of virus induced cytopathic effect after 5 days by MTT assay; assay type: functional, organism-based; settings: Human immunodeficiency virus 1, 3B, MT4, 120 h
# [7] = system: Human immunodeficiency virus 1; assay: Antiviral activity against HIV1 3B; assay type: functional, organism-based; settings: Human immunodeficiency virus 1, 3B
# [8] = biological target: T1, C-X-C chemokine receptor type 4 (Homo sapiens, UniProt P61073); assay: Antagonist activity at CXCR4 (unknown origin); assay type: functional
# T1 sequence (P61073 whole entry): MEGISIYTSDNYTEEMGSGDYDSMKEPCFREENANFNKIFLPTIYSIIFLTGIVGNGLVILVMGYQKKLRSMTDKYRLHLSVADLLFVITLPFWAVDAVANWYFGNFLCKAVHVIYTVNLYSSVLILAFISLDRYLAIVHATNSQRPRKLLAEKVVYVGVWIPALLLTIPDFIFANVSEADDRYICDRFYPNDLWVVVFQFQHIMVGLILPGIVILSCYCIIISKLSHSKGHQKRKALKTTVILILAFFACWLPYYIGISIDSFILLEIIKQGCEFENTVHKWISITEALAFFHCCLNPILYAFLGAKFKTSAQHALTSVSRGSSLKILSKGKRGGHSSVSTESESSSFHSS
# [9] = system: Human immunodeficiency virus; assay: Antiviral activity against HIV R4; assay type: functional, organism-based; settings: Human immunodeficiency virus 1, R4
# [10] = system: Human immunodeficiency virus 1; assay: Antiviral activity against HIV1 infected in human PBMC measured at 7 to 10 days post infection by ELISA; assay type: functional, organism-based; settings: Human immunodeficiency virus 1, PBMC
# [11] = biological target: T1, C-X-C chemokine receptor type 4; assay: Inhibition of SDF-1 binding to CXCR4 (unknown origin)
# [12] = biological target: T1, C-X-C chemokine receptor type 4; assay: Displacement of [125I]SDF-1 from human CXCR4 expressed in HEK293 cell membranes after 1.5 hrs by Topcount method
# [13] = system: Human immunodeficiency virus 1; assay: Antiviral activity against HIV1 3B infected in human MT4 cells assessed as inhibition of virus replication by MTT assay; assay type: functional, organism-based; settings: Human immunodeficiency virus 1, 3B
# [14] = Cytotoxicity against human MT4 cells assessed as reduction in cell viability; assay type: cell-based
# [15] = Plasma concentration in Wistar rat at 200 mg/ml/kg administered intraduodenal after 60 mins by LC-MS analysis; assay type: ADME
# [16] = Bioavailability in Wistar rat at 200 mg/ml/kg administered intraduodenal by LC-MS analysis; assay type: ADME, organism-based; settings: in vivo
# [17] = biological target: T1, C-X-C chemokine receptor type 4; assay: Displacement of [125I]SDF-1alpha from CXCR4 in human MT4 cells after 2 hrs by scintillation counting analysis; assay type: cell-based
# [18] = biological target: T1, C-X-C chemokine receptor type 4; assay: Inhibition of SDF-1 binding to CXCR4 (unknown origin) at 10 uM relative to control
compound,measurement,setting,value
c1ccc(CNCc2ccc(CN3CCNCCCOCCCNCC3)cc2)nc1,EC50,[1],4 nM
Clc1cc(CN2CCCNCCNCCCNCC2)cc(Cl)n1,IC50,[2],1200 to 26500 nM
same,IC50,[3],1200 to 26500 nM
same,IC50,[4],1200 to 26500 nM
same,IC50,[5],1200 to 26500 nM
CC1CCCCN1CCCNCc1ccc(CNCCCN2CCCCC2C)cc1 (centres undefined),EC50,[6],19.3 nM
c1cc(CN2CCCNCCNCCCNCC2)ccc1CN1CCCNCCNCCCNCC1 [PLERIXAFOR],EC50,[7],3 nM
Cn1ccc2c(NC(=O)NCCc3ccc4c(n3)NCCC4)cccc21,IC50,[8],400 nM
same,IC50,[9],200 to 50000 nM
CC(C)CN(CCCCNC(=O)c1ccc(CN(Cc2ncc[nH]2)Cc2ncc[nH]2)cc1)CC(C)C,EC50,[10],3 nM
CC(NC[C@@H]1CCN(CCc2c[nH]c3ccc(-n4cnnc4)cc23)C1)c1ccccc1 (some centres undefined),IC50,[11],7 to 20 nM
Cc1ccsc1CN1CCC2(CC1)CCN(Cc1ccc(C(=O)N(Cc3ncc[nH]3)Cc3ncc[nH]3)cc1)C2,IC50,[11],11 nM
c1ccc(CNCc2ccc(CN3CCNCCc4cccc(n4)CCNCC3)cc2)nc1,EC50,[1],1 nM
c1ccc(CNCc2ccc(CN3CCCNCCNCCCNCC3)cc2)nc1,EC50,[1],9 nM
O=C(NCCc1ccc2c(n1)NCCC2)Nc1cccc2ccccc12,IC50,[8],600 nM
same,IC50,[9],200 to 50000 nM
FC(F)(F)c1ccc(NC(=S)NCCc2ccc3c(n2)NCCC3)cc1,IC50,[8],200 nM
same,IC50,[9],200 to 50000 nM
O=C(NCCc1ccc2c(n1)NCCC2)Nc1ccc(C(F)(F)F)cc1,IC50,[8],600 nM
same,IC50,[9],200 to 50000 nM
c1ccc2c(NC3CCNCC3)nc(NCc3ccc(CNCCCNC4CCCCC4)cc3)nc2c1,IC50,[12],36.2 nM
CC(C)Oc1ccc(-c2ccc3ccn(CC(=O)NCCN(C)C4CCCCC4)c3c2)cc1,IC50,[11],< 1000 nM
CN(CCc1ccccc1)C[C@@H]1CCN(CCc2c[nH]c3ccc(-n4cnnc4)cc23)C1,IC50,[11],7 to 20 nM
CCCN(CCC)CCCCNCc1ccc(CN(Cc2ncc[nH]2)Cc2ncc[nH]2)cc1,EC50,[10],2 nM
COc1ccc(NC(=O)NCCc2ccc3c(n2)NCCC3)cc1OC,IC50,[8],680 nM
same,IC50,[9],200 to 50000 nM
CC(C)c1ccccc1NC(=O)NCCc1ccc2c(n1)NCCC2,IC50,[8],800 nM
same,IC50,[9],200 to 50000 nM
Nc1cc(N2CCNCC2)nc(NCc2ccc(CNCCCNC3CCCCC3)cc2)n1,IC50,[8],< 20 nM
COc1ccc2[nH]c(CNCc3ccc(CN(CCNCc4ccccn4)CCNCc4ccccn4)cc3)nc2c1,IC50,[8],4 to 100 nM
CCCN(CCC)CCCCN(C)Cc1ccc(CN(Cc2ncc[nH]2)Cc2nccn2C)cc1,EC50,[10],0.3 to 1 nM
CN1CCN(c2cc(N)nc(NCc3ccc(CNCCCNC4CCCCC4)cc3)n2)CC1,IC50,[8],< 20 nM
CCN(CC)CCCC(C)Nc1cc(/C=C/c2ccc([N+](=O)[O-])cc2)nc2cc(OC)ccc12 (centres undefined),IC50,[12],2160 nM
C[C@H](NC(=O)[C@H](CCCNC(=N)N)NC(=O)c1ccc(CNCc2ccccn2)cc1)c1cccc2ccccc12,EC50,[13],19.3 nM
same,CC50,[14],400000 nM
same,concentration at 1 h,[15],30.6 µM
same,bioavailability,[16],7%
same,IC50,[17],13 nM
C1CNCCNCCCNC(C2CNCCCNCCNCCCN2)CNC1 (centres undefined),EC50,[7],144 nM
c1ccc(CN2CCC(Nc3nccc(N4CCCCCC4)n3)C2)cc1 (centres undefined),inhibition,[18],> 50%
NCCNc1nccc(N2CCCCCC2)n1,inhibition,[18],> 50%
c1ccc(CCNC[C@@H]2CCN(CCc3c[nH]c4ccc(-n5cnnc5)cc34)C2)cc1,IC50,[11],7 to 20 nM
CC1CCCCN1CCCNCc1ccc(CN2CCCNCCNCCCNCC2)cc1 (centres undefined),EC50,[6],43.6 nM
c1cc(CN2CCCNCCNCCCNCC2)ccc1CNCCCN1CCOCC1,EC50,[6],134 nM
CC(C)(NC[C@@H]1CCN(CCc2c[nH]c3ccc(-n4cnnc4)cc23)C1)c1ccccc1,IC50,[11],7 to 20 nM
C1CNCCNCCCN(CCCN2CCCNCCNCCCNCC2)CCNC1,EC50,[7],248 nM
c1ccc(CNCCN(CCNCc2ccccn2)Cc2ccc(CNCc3nc4ccccc4[nH]3)cc2)nc1,IC50,[8],4 to 100 nM
CCCN(CCC)Cc1ccc(NC(=O)c2ccc(CN(Cc3ncc[nH]3)Cc3ncc[nH]3)cc2)cc1,EC50,[10],2 nM
CC(C)CN(CCC[C@H](NC(=O)c1ccc(CNCc2ncc[nH]2)cc1)C(=O)N[C@@H](C)c1cccc2ccccc12)CC(C)C,EC50,[6],6.7 nM
